Laboratory results as given in patent US20160158377A1, “BCL-XL Inhibitory Compounds and Antibody Drug Conjugates Including the Same” (AbbVie Inc., priority 2014, published 2016).
Like-named read-outs stand apart in the source and are kept apart here.

Tests used:
Bcl-xL = Bcl-xL (Homo sapiens, UniProt Q07817); assay: TR-FRET Bcl-xL binding assay (competition with probe F-Bak)
Method: For the assay, test compounds were serially diluted in DMSO starting at 50 μM (2× starting concentration; 10% DMSO) and 10 μL transferred into a 384-well plate. 10 μL of a protein/probe/antibody mix was then added to each well at final concentrations listed below:
The samples were then mixed on a shaker for 1 minute and incubated for an additional 2 hours at room temperature. For each assay plate, a probe/antibody and protein/antibody/probe mixture were included as a negative and a positive control, respectively. Fluorescence was measured on the Envision (Perkin Elmer) using a 340/35 nm excitation filter and 520/525 (F-Bak) and 495/510 nm (Tb-labeled anti-his antibody) emission filters. Dissociation constants (Ki) were determined using Wang's equation (Wang, 1995, FEBS Lett. 360:111-114). The TR-FRET assay can be performed in the presence of varying concentrations of human serum (HS) or fetal bovine serum (FBS). Compounds were tested both without HS and in the presence of 1% HS.

[1] = test system: Molt-4 human acute lymphoblastic leukemia cells; assay: Molt-4 cell viability assay; format: cell-based; details: 10% human serum, 48 hours, CellTiter-Glo, read-out: Molt-4 Viability EC50 (nM, 10% HS)
Method: In one exemplary set of conditions, Molt-4 (ATCC, Manassas, Va.) human acute lymphoblastic leukemia cells were plated 12,500 cells per well in 384-well tissue culture plates (Corning, Corning, N.Y.) in a total volume of 25 μL tissue culture medium supplemented with 10% human serum (Sigma-Aldrich, St. Louis, Mo.) and treated with a 3-fold serial dilution of the compounds of interest from 10 μM to 0.0005 μM. Each concentration was tested in duplicate at least 3 separate times. The number of viable cells following 48 hours of compound treatment was determined using the CellTiter-Glo® Luminescent Cell Viability Assay according to the manufacturer's recommendations (Promega Corp., Madison, Wis.). Compounds were tested in the presence of 10% HS.

[2] = in the presence of 1% human serum (HS), read-out: Bcl-xL Binding Ki (nM, 1% HS)
[3] = without human serum, read-out: Bcl-xL Binding Ki

Bcl-xL, sequence (Q07817 whole entry): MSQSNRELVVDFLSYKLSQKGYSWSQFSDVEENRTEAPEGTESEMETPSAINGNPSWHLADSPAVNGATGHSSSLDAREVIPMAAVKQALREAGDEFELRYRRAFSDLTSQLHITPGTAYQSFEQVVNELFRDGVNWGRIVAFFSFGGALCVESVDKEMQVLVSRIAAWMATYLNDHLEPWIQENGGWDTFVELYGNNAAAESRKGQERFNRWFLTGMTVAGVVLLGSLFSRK

Compound	Ki (Bcl-xL; [2])	Ki (Bcl-xL; [3])	EC50 [1]
CNCCOC12CC3(C)CC(C)(CC(Cn4ncc(-c5ccc(-c6ccc7cccc(C(=O)Nc8nc9cccnc9s8)c7c6)nc5C(=O)O)c4C)(C3)C1)C2 [Compound W3.07, 3-[1-({3,5-dimethyl-7-[2-(methylamino)ethoxy]tricyclo[3.3.1.1^3,7]dec-1-yl}methyl)-5-methyl-1H-pyrazol-4-yl]-6-[8-([1,3]thiazolo[5,4-b]pyridin-2-ylcarbamoyl)naphthalen-2-yl]pyridine-2-carboxylic acid]	0.29 nM	< 0.001 nM	432 nM
CNCCOC12CC3(C)CC(C)(CC(Cn4ncc(-c5ccc(-c6ccc7cccc(C(=O)Nc8nc9ncccc9s8)c7c6)nc5C(=O)O)c4C)(C3)C1)C2 [Compound W3.08, 3-[1-({3,5-dimethyl-7-[2-(methylamino)ethoxy]tricyclo[3.3.1.1^3,7]dec-1-yl}methyl)-5-methyl-1H-pyrazol-4-yl]-6-[8-([1,3]thiazolo[4,5-b]pyridin-2-ylcarbamoyl)naphthalen-2-yl]pyridine-2-carboxylic acid]	0.013 nM	< 0.001 nM	40 nM
CNCCOC12CC3(C)CC(C)(CC(Cn4ncc(-c5ccc(N6CCc7c(OC)ccc(C(=O)Nc8nc9ccccc9s8)c7C6)nc5C(=O)O)c4C)(C3)C1)C2 [Compound W3.09, 6-[8-(1,3-benzothiazol-2-ylcarbamoyl)-5-methoxy-3,4-dihydroisoquinolin-2(1H)-yl]-3-[1-({3,5-dimethyl-7-[2-(methylamino)ethoxy]tricyclo[3.3.1.1^3,7]dec-1-yl}methyl)-5-methyl-1H-pyrazol-4-yl]pyridine-2-carboxylic acid]	0.14 nM	< 0.001 nM	3.8 nM
CNCCOC12CC3(C)CC(C)(CC(Cn4ncc(-c5ccc(-c6ccc7nccc(C(=O)Nc8nc9ccccc9s8)c7c6)nc5C(=O)O)c4C)(C3)C1)C2 [Compound W3.11, 6-[4-(1,3-benzothiazol-2-ylcarbamoyl)quinolin-6-yl]-3-[1-({3,5-dimethyl-7-[2-(methylamino)ethoxy]tricyclo[3.3.1.1^3,7]dec-1-yl}methyl)-5-methyl-1H-pyrazol-4-yl]pyridine-2-carboxylic acid]	0.94 nM	< 0.001 nM	34.3 nM
COCCNCCOC12CC3(C)CC(C)(CC(Cn4ncc(-c5ccc(N6CCc7c(OC)ccc(C(=O)Nc8nc9ccccc9s8)c7C6)nc5C(=O)O)c4C)(C3)C1)C2 [Compound W3.12, 6-[8-(1,3-benzothiazol-2-ylcarbamoyl)-5-methoxy-3,4-dihydroisoquinolin-2(1H)-yl]-3-{1-[(3-{2-[(2-methoxyethyl)amino]ethoxy}-5,7-dimethyltricyclo[3.3.1.1^3,7]dec-1-yl)methyl]-5-methyl-1H-pyrazol-4-yl}pyridine-2-carboxylic acid]	0.051 nM	0.0042 nM	2.6 nM
Cc1c(-c2ccc(N3CCc4c(C#N)ccc(C(=O)Nc5nc6ccccc6s5)c4C3)nc2C(=O)O)cnn1CC12CC3(C)CC(C)(C1)CC(OCCN)(C3)C2 [Compound W3.13, 3-(1-{[3-(2-aminoethoxy)-5,7-dimethyltricyclo[3.3.1.1^3,7]dec-1-yl]methyl}-5-methyl-1H-pyrazol-4-yl)-6-[8-(1,3-benzothiazol-2-ylcarbamoyl)-5-cyano-3,4-dihydroisoquinolin-2(1H)-yl]pyridine-2-carboxylic acid]	6.8 nM	0.013 nM	2290 nM
COCCNCCOC12CC3(C)CC(C)(CC(Cn4ncc(-c5ccc(-c6ccc7c(c6)N(C(=O)Nc6nc8ccccc8s6)CCC7)nc5C(=O)O)c4C)(C3)C1)C2 [Compound W3.14, 6-[1-(1,3-benzothiazol-2-ylcarbamoyl)-1,2,3,4-tetrahydroquinolin-7-yl]-3-{1-[(3-{2-[(2-methoxyethyl)amino]ethoxy}-5,7-dimethyltricyclo[3.3.1.1^3,7]dec-1-yl)methyl]-5-methyl-1H-pyrazol-4-yl}pyridine-2-carboxylic acid]	0.014 nM	< 0.001 nM	1.8 nM
COCCNCCOC12CC3(C)CC(C)(CC(Cn4ncc(-c5ccc(-c6ccc7cccc(C(=O)Nc8nc9ccccc9s8)c7c6)nc5C(=O)O)c4C)(C3)C1)C2 [Compound W3.15, 6-[8-(1,3-benzothiazol-2-ylcarbamoyl)naphthalen-2-yl]-3-{1-[(3-{2-[(2-methoxyethyl)amino]ethoxy}-5,7-dimethyltricyclo[3.3.1.1^3,7]dec-1-yl)methyl]-5-methyl-1H-pyrazol-4-yl}pyridine-2-carboxylic acid]	0.1 nM	< 0.001 nM	2.5 nM
Cc1c(-c2ccc(N3CCc4cccc(C(=O)Nc5nc6ccccc6s5)c4C3)nc2C(=O)O)cnn1CC12CC3(C)CC(C)(C1)CC(OCCNC1COC1)(C3)C2 [Compound W3.16, 6-[8-(1,3-benzothiazol-2-ylcarbamoyl)-3,4-dihydroisoquinolin-2(1H)-yl]-3-[1-({3,5-dimethyl-7-[2-(oxetan-3-ylamino)ethoxy]tricyclo[3.3.1.1^3,7]dec-1-yl}methyl)-5-methyl-1H-pyrazol-4-yl]pyridine-2-carboxylic acid]	0.14 nM	< 0.001 nM	3.7 nM
Cc1c(-c2ccc(N3CCc4cccc(C(=O)Nc5nc6ccccc6s5)c4C3)nc2C(=O)O)cnn1CC12CC3(C)CC(C)(C1)CC(OCCNCCS(N)(=O)=O)(C3)C2 [Compound W3.18, 6-[8-(1,3-benzothiazol-2-ylcarbamoyl)-3,4-dihydroisoquinolin-2(1H)-yl]-3-{1-[(3,5-dimethyl-7-{2-[(2-sulfamoylethyl)amino]ethoxy}tricyclo[3.3.1.1^3,7]dec-1-yl)methyl]-5-methyl-1H-pyrazol-4-yl}pyridine-2-carboxylic acid]	0.19 nM	0.038 nM	14 nM
Cc1c(-c2ccc(N3CCc4scc(C(=O)Nc5nc6ccccc6s5)c4C3)nc2C(=O)O)cnn1CC12CC3(C)CC(C)(C1)CC(OCCN)(C3)C2 [Compound W3.19, 3-(1-{[3-(2-aminoethoxy)-5,7-dimethyltricyclo[3.3.1.1^3,7]dec-1-yl]methyl}-5-methyl-1H-pyrazol-4-yl)-6-[3-(1,3-benzothiazol-2-ylcarbamoyl)-6,7-dihydrothieno[3,2-c]pyridin-5(4H)-yl]pyridine-2-carboxylic acid]	309 nM	21 nM	> 10000 nM
Cc1c(-c2ccc(N3CCn4c(C(F)(F)F)nc(C(=O)Nc5nc6ccccc6s5)c4C3)nc2C(=O)O)cnn1CC12CC3(C)CC(C)(C1)CC(OCCN)(C3)C2 [Compound W3.20, 3-(1-{[3-(2-aminoethoxy)-5,7-dimethyltricyclo[3.3.1.1^3,7]dec-1-yl]methyl}-5-methyl-1H-pyrazol-4-yl)-6-[1-(1,3-benzothiazol-2-ylcarbamoyl)-3-(trifluoromethyl)-5,6-dihydroimidazo[1,5-a]pyrazin-7(8H)-yl]pyridine-2-carboxylic acid]	0.014 nM	< 0.01 nM	18.2 nM
CNCCOC12CC3(C)CC(C)(CC(Cn4ncc(-c5ccc(N6CCc7c(N)ccc(C(=O)Nc8nc9ccccc9s8)c7C6)nc5C(=O)O)c4C)(C3)C1)C2 [Compound W3.24, 6-[5-amino-8-(1,3-benzothiazol-2-ylcarbamoyl)-3,4-dihydroisoquinolin-2(1H)-yl]-3-[1-({3,5-dimethyl-7-[2-(methylamino)ethoxy]tricyclo[3.3.1.1^3,7]dec-1-yl}methyl)-5-methyl-1H-pyrazol-4-yl]pyridine-2-carboxylic acid]	8.14 nM	0.794 nM	2210 nM
CNCC#Cc1cc2c(c(C(=O)Nc3nc4ccccc4s3)c1)CN(c1ccc(-c3cnn(CC45CC6(C)CC(C)(C4)CC(OCCOC)(C6)C5)c3C)c(C(=O)O)n1)CC2 [Compound W3.25, 6-[8-(1,3-benzothiazol-2-ylcarbamoyl)-6-[3-(methylamino)prop-1-yn-1-yl]-3,4-dihydroisoquinolin-2(1H)-yl]-3-(1-{[3-(2-methoxyethoxy)-5,7-dimethyltricyclo[3.3.1.1^3,7]dec-1-yl]methyl}-5-methyl-1H-pyrazol-4-yl)pyridine-2-carboxylic acid]	0.9 nM	0.138 nM	424 nM
CNCCOC12CC3(C)CC(C)(CC(Cn4ncc(-c5ccc(-c6ccc7cncc(C(=O)Nc8nc9ccccc9s8)c7c6)nc5C(=O)O)c4C)(C3)C1)C2 [Compound W3.26, 6-[4-(1,3-benzothiazol-2-ylcarbamoyl)isoquinolin-6-yl]-3-[1-({3,5-dimethyl-7-[2-(methylamino)ethoxy]tricyclo[3.3.1.1^3,7]dec-1-yl}methyl)-5-methyl-1H-pyrazol-4-yl]pyridine-2-carboxylic acid]	0.083 nM	< 0.02 nM	4.3 nM
